Test results reported in PubChem BioAssay (NCI).
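Interpolation was linear, between the two tested concentrations surrounding the appropriate level; five concentrations were tested over 48 hours in 96-well plates. TGI is the concentration that stops growth completely.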

What was measured:
Experiment in all cases: DTP human tumour cell line panel, 48 h
[1] = test system: OVCAR-3 ovarian
[2] = test system: KM20L2 colon
[3] = test system: NCI-H460 lung
[4] = test system: K-562 leukemia
[5] = test system: RPMI-8226 leukemia
[6] = test system: SK-MEL-28 melanoma
[7] = test system: M19-MEL melanoma
[8] = test system: SF-295 CNS
[9] = test system: SW-620 colon
[10] = test system: A498 renal
[11] = test system: SF-539 CNS
[12] = test system: RXF 393 renal
[13] = test system: CAKI-1 renal
[14] = test system: KM12 colon
[15] = test system: UACC-62 melanoma
[16] = test system: NCI-H522 lung
[17] = test system: COLO 205 colon
[18] = test system: OVCAR-5 ovarian
[19] = test system: U251 CNS
[20] = test system: UACC-257 melanoma
[21] = test system: UO-31 renal
[22] = test system: HCT-15 colon
[23] = test system: HCT-116 colon
[24] = test system: SNB-19 CNS
[25] = test system: OVCAR-8 ovarian
[26] = test system: SK-MEL-2 melanoma
[27] = test system: HOP-18 NSCLC
[28] = test system: SN12C renal
[29] = test system: OVCAR-4 ovarian
[30] = test system: SK-MEL-5 melanoma
[31] = test system: HT29 colon
[32] = test system: LOX IMVI melanoma
[33] = test system: HL-60(TB) leukemia
[34] = test system: IGROV1 ovarian
[35] = test system: HOP-62 NSCLC
[36] = test system: TK-10 renal
[37] = test system: DMS 273 small cell lung
[38] = test system: ACHN renal
[39] = test system: DLD-1 colon
[40] = test system: SNB-78 CNS
[41] = test system: LXFL 529 NSCLC
[42] = test system: MOLT-4 leukemia
[43] = test system: M14 melanoma
[44] = test system: 786-0 renal
[45] = test system: MALME-3M melanoma
[46] = test system: NCI-H23 lung
[47] = test system: EKVX NSCLC
[48] = test system: HCC-2998 colon
[49] = test system: SNB-75 CNS
[50] = test system: DMS 114 small cell lung
[51] = test system: CCRF-CEM leukemia
[52] = test system: A549 NSCLC
[53] = test system: SK-OV-3 ovarian
[54] = test system: NCI-H226 lung
[55] = test system: SF-268 CNS
[56] = test system: HOP-92 NSCLC
[57] = test system: XF 498 CNS
[58] = test system: RXF-631 renal
[59] = test system: SR leukemia

Q: Which results are given for `O=C1C[C@@H]2[C@@H](C=CC23CCCC3)N1O`?
A: TGI [1]: > 100 µM; TGI [2]: > 100 µM; TGI [3]: > 100 µM; TGI [4]: > 100 µM; TGI [5]: > 100 µM; TGI [6]: > 100 µM; TGI [7]: > 100 µM; TGI [8]: > 100 µM; TGI [9]: > 100 µM; TGI [10]: > 100 µM; TGI [11]: > 100 µM; TGI [12]: > 100 µM; TGI [13]: > 100 µM; TGI [14]: > 100 µM; TGI [15]: > 100 µM; TGI [16]: > 100 µM; TGI [17]: > 100 µM; TGI [18]: > 100 µM; TGI [19]: > 100 µM; TGI [20]: > 100 µM; TGI [21]: > 100 µM; TGI [22]: > 100 µM; TGI [23]: > 100 µM; TGI [24]: > 100 µM; TGI [25]: > 100 µM; TGI [26]: > 100 µM; TGI [27]: > 100 µM; TGI [28]: > 100 µM; TGI [29]: > 100 µM; TGI [30]: > 100 µM; TGI [31]: > 100 µM; TGI [32]: > 100 µM; TGI [33]: > 100 µM; TGI [34]: > 100 µM; TGI [35]: > 100 µM; TGI [36]: > 100 µM; TGI [37]: > 100 µM; TGI [38]: > 100 µM; TGI [39]: > 100 µM; TGI [40]: > 100 µM; TGI [41]: > 100 µM; TGI [42]: > 100 µM; TGI [43]: > 100 µM; TGI [44]: > 100 µM; TGI [45]: > 100 µM; TGI [46]: > 100 µM; TGI [47]: > 100 µM; TGI [48]: > 100 µM; TGI [49]: > 100 µM; TGI [50]: > 100 µM; TGI [51]: > 100 µM; TGI [52]: > 100 µM; TGI [53]: > 100 µM; TGI [54]: > 100 µM; TGI [55]: > 100 µM

Q: With `Nc1ccc(C(=O)NN2C(=O)C(Cl)C2c2ccc(O)cc2)cc1` (stereo unspecified) as the molecule, how does the TGI [1] read?
A: 29.2 µM

Q: What about the TGI [2] of the same molecule?
A: 41.9 µM

Q: And the TGI [3]?
A: 54.8 µM

Q: And the TGI [4]?
A: 49.5 µM

Q: And the TGI [5]?
A: > 100 µM

Q: And the TGI [6]?
A: 40.7 µM

Q: And the TGI [7]?
A: 38.8 µM

Q: What about the TGI [8] of the same molecule?
A: > 100 µM

Q: And the TGI [9]?
A: 44.7 µM

Q: And the TGI [10]?
A: 56.5 µM

Q: What about the TGI [11] of the same molecule?
A: 34.3 µM

Q: What about the TGI [13] of the same molecule?
A: 51.3 µM

Q: And the TGI [14]?
A: 47.2 µM

Q: What about the TGI [15] of the same molecule?
A: 29.1 µM

Q: And the TGI [16]?
A: 24.4 µM

Q: What about the TGI [17] of the same molecule?
A: 33.4 µM

Q: What about the TGI [56] of the same molecule?
A: 41.8 µM

Q: What about the TGI [18] of the same molecule?
A: 46.6 µM

Q: What about the TGI [19] of the same molecule?
A: 29.6 µM

Q: And the TGI [20]?
A: > 100 µM

Q: And the TGI [21]?
A: 57.9 µM

Q: What about the TGI [22] of the same molecule?
A: 50.1 µM

Q: And the TGI [23]?
A: 44 µM

Q: And the TGI [24]?
A: 31.4 µM

Q: And the TGI [25]?
A: 68.8 µM

Q: And the TGI [26]?
A: 31.4 µM

Q: And the TGI [28]?
A: 36.6 µM

Q: And the TGI [29]?
A: 41.4 µM

Q: And the TGI [30]?
A: 31 µM

Q: What about the TGI [31] of the same molecule?
A: 45.1 µM

Q: And the TGI [32]?
A: 22.7 µM

Q: And the TGI [33]?
A: 33.7 µM

Q: What about the TGI [34] of the same molecule?
A: 32.9 µM

Q: What about the TGI [35] of the same molecule?
A: 38.4 µM

Q: What about the TGI [36] of the same molecule?
A: > 100 µM

Q: And the TGI [37]?
A: 35.1 µM

Q: What about the TGI [38] of the same molecule?
A: > 100 µM

Q: What about the TGI [39] of the same molecule?
A: 33.4 µM

Q: What about the TGI [40] of the same molecule?
A: 44.6 µM

Q: What about the TGI [41] of the same molecule?
A: 31.7 µM

Q: And the TGI [57]?
A: 27.8 µM

Q: And the TGI [42]?
A: 37.8 µM

Q: And the TGI [43]?
A: 31.4 µM

Q: What about the TGI [44] of the same molecule?
A: 31.3 µM

Q: What about the TGI [45] of the same molecule?
A: 32.9 µM

Q: What about the TGI [46] of the same molecule?
A: 35.2 µM

Q: What about the TGI [47] of the same molecule?
A: 36.1 µM

Q: And the TGI [49]?
A: 70.4 µM

Q: What about the TGI [50] of the same molecule?
A: 25.7 µM

Q: And the TGI [51]?
A: 33.8 µM

Q: What about the TGI [52] of the same molecule?
A: > 100 µM

Q: What about the TGI [53] of the same molecule?
A: 46.1 µM

Q: And the TGI [54]?
A: 57.3 µM

Q: What about the TGI [55] of the same molecule?
A: 27 µM

Q: Which TGI [1] does the source give for `CCOC(=O)N1C/C(=C\c2ccc(N(C)C)cc2)C(=O)/C(=C/c2ccc(N(C)C)cc2)C1` here?
A: > 100 µM

Q: What about the TGI [2] of the same molecule?
A: > 100 µM

Q: What about the TGI [3] of the same molecule?
A: > 100 µM

Q: And the TGI [4]?
A: > 100 µM

Q: What about the TGI [5] of the same molecule?
A: > 100 µM

Q: What about the TGI [6] of the same molecule?
A: > 100 µM

Q: And the TGI [7]?
A: > 100 µM

Q: What about the TGI [8] of the same molecule?
A: > 100 µM

Q: And the TGI [9]?
A: > 100 µM

Q: What about the TGI [10] of the same molecule?
A: > 100 µM

Q: And the TGI [11]?
A: > 100 µM

Q: What about the TGI [12] of the same molecule?
A: > 100 µM

Q: And the TGI [13]?
A: > 100 µM

Q: What about the TGI [14] of the same molecule?
A: > 100 µM

Q: What about the TGI [15] of the same molecule?
A: > 100 µM

Q: What about the TGI [16] of the same molecule?
A: > 100 µM

Q: What about the TGI [17] of the same molecule?
A: > 100 µM

Q: And the TGI [56]?
A: > 100 µM

Q: And the TGI [18]?
A: > 100 µM

Q: What about the TGI [19] of the same molecule?
A: > 100 µM

Q: And the TGI [20]?
A: > 100 µM

Q: And the TGI [21]?
A: > 100 µM

Q: What about the TGI [22] of the same molecule?
A: > 100 µM

Q: What about the TGI [23] of the same molecule?
A: > 100 µM

Q: And the TGI [24]?
A: > 100 µM

Q: And the TGI [25]?
A: > 100 µM

Q: What about the TGI [58] of the same molecule?
A: > 100 µM

Q: And the TGI [26]?
A: > 100 µM

Q: And the TGI [27]?
A: > 100 µM

Q: What about the TGI [28] of the same molecule?
A: > 100 µM

Q: What about the TGI [29] of the same molecule?
A: > 100 µM

Q: What about the TGI [30] of the same molecule?
A: > 100 µM

Q: And the TGI [31]?
A: > 100 µM

Q: And the TGI [32]?
A: > 100 µM

Q: And the TGI [33]?
A: > 100 µM

Q: What about the TGI [34] of the same molecule?
A: > 100 µM

Q: And the TGI [35]?
A: > 100 µM

Q: And the TGI [36]?
A: > 100 µM

Q: And the TGI [37]?
A: > 100 µM

Q: What about the TGI [59] of the same molecule?
A: > 100 µM

Q: And the TGI [38]?
A: > 100 µM

Q: What about the TGI [39] of the same molecule?
A: > 100 µM

Q: What about the TGI [40] of the same molecule?
A: > 100 µM

Q: And the TGI [41]?
A: > 100 µM

Q: And the TGI [42]?
A: > 100 µM

Q: What about the TGI [43] of the same molecule?
A: > 100 µM

Q: And the TGI [44]?
A: > 100 µM

Q: And the TGI [45]?
A: > 100 µM

Q: What about the TGI [46] of the same molecule?
A: > 100 µM

Q: And the TGI [47]?
A: > 100 µM

Q: What about the TGI [48] of the same molecule?
A: > 100 µM

Q: And the TGI [49]?
A: > 100 µM

Q: And the TGI [50]?
A: > 100 µM

Q: And the TGI [51]?
A: > 100 µM

Q: And the TGI [52]?
A: > 100 µM

Q: And the TGI [53]?
A: > 100 µM

Q: And the TGI [55]?
A: > 100 µM
